In article PMC5390981, “Peptide probes derived from pertuzumab by molecular dynamics modeling for HER2 positive tumor imaging” (PLoS Computational Biology, 2017):
No end group written: not given here.

What was measured:
[1] = test system: SKBR3 cell line with high HER2 expression; test: Confocal fluorescence imaging of cells incubated with Cy5.5-labeled peptides; assay type: cell-based; conditions: 50 μM Cy5.5-labeled peptide, 4°C, 20 min
Protocol: Four cell lines (SKBR3, MCF7, MDA-MB-468, and 293A) were seeded at a density of 3000 cells/mL into culture dishes and allowed to culture overnight with 5% CO2 at 37°C. Cell nuclei was stained with 1 mM Hoechst 33342 in 200 μL cell culture medium and incubated at 37°C for 15 min. Then, cells were incubated in culture medium with 50 μM Cy5.5-labeled peptide at 4°C for 20 min. Finally, cells were washed three times with cold PBS for observation. An Olympus FV1000-IX81 confocal-laser scanning microscope was used for confocal fluorescence imaging. An FV5-LAMAR 633 nm laser was used as the excitation source, and the emission wave length was collected at 690 nm. Hoechst 33342 was excited by a FV5-LD405-2 405 nm laser and collected within the range of 422–472 nm. All microscope parameters were identical for all observations of the binding ability of the various peptides.

HUVEC = test: Toxicity of peptides to cells (S4 Fig); assay type: cell-based
SKBR3 = test: Toxicity of peptides to cells (S4 Fig); assay type: cell-based
HER2/biotin complex = HER2/biotin complex (Homo sapiens, UniProt P04626); test: OBOC peptide library screening with magnetic beads; assay type: binding; conditions: library of 5184 sequences, HER2/biotin and magnetic streptavidin microspheres, 37°C, 2 h each step
Description: The OBOC peptide library was designed based on binding free energies derived from the MD simulations of single and double mutants that are lower than the HER2/4665 complex. These mutations are in the 4665 fragment of pertuzumab from 55 to 64: EWVADVNPNX55X56X57X58X59X60N61X62X63X64K. According to computational calculations, the V, S, and M mutants have lower energies for X55. This is also the case for G, M, and Y for X56; G, A, and V for X57; S, F, and H for X58; I and R for X59; Y and W for X60; Q and F for X62; R, W, Q, and V for X63; and F and R for X64. The result is a 3*3*3*3*2*2*2*4*2 = 5184 library capacity.
The OBOC library synthesis and screening was performed as per the previously used method. Briefly, HBTU (4 mmol) and Fmoc-amino acid (4 mmol) reagent was dissolved in 0.4 mol/L N-Methyl morpholine in N,N-dimethylformamide and coupled with the solid phase supporting materials for 40 min during the coupling step. A 20% piperidine was used to remove the Fmoc group for 10 min in the deprotection step. During the OBOC library synthesis, the amino acid coupling process was carried out in the “split” step, while the deprotection process was carried out in the “pool” step. After elongation, a trifluoroacetic acid cleavage reagent was introduced to cleave the side chain protection group of each residue. […]

[2] = test system: subcutaneous SKBR3 tumor xenografts; test: In vivo and ex vivo fluorescence imaging of tumor targeting; design: species or system Balb/c female nude mice; conditions: for in vivo tumor fluorescence intensity (binding affinity increase) relative to the control Cy5.5: Cy5.5-labeled peptide 1 μM, 200 μL i.v. tail vein, 30 min postinjection, nude mice with SKBR3 xenografts, average n = 3; for ex vivo tumor fluorescence signal compared to controls: dissected tumors 30 min postinjection of Cy5.5-labeled peptide, n = 3
Protocol: Five to six-week-old Balb/c female nude mice were subcutaneously administered approximately 1 × 10^7 SKBR3 cells into the right hind leg, to establish xenografted tumors. Thereafter, tumor size was periodically measured with a caliper, and mice with tumors of 6−8 mm in diameter were selected for the following small animal experiments. Cy5.5–NHS (Lumiprobe) was used to label peptides. Either Cy5.5-peptides or the control Cy5.5 (1 μM, 200 μL) was intravenously injected into tumor-bearing nude mice via the tail vein. The mice were anesthetized and fluorescence signals measured using the small animal in vivo imaging system 30 min postinjection. Three mice were used for each peptide and for control. Near-infrared fluorescence imaging of tumor-bearing nude mice were taken with an exposure time of 50 ms, using the Cy5.5 filter sets (excitation: 673 nm; emission: 707 nm), and the intensities were quantified using the same software. Then, fluorescence images of the main organs and of tumors dissected from nude mice were individually taken as above.

[3] = target: T1, HER2 protein (human epidermal growth factor receptor 2) (human, UniProt P04626 23-652); test: SPR; SPR imaging (SPRi, PlexArray HT); peptides immobilised through an N-terminal cysteine on a bare gold chip, blocked with 5% nonfat milk; HER2 or HSA in PBST flowed at 0.625 to 20 μg/mL; KD from fitting association-dissociation curves; conditions: both partners purified
T1 construct: Human epidermal growth factor receptor 2 (HER2), bought protein; Surmise: the bought protein is probably a soluble extracellular domain, possibly tagged; source: bought: Sino Biological Inc., China

[4] = target: HER2 on cells (SKBR3, high expression; MCF7, medium expression) (human (endogenous in SKBR3), UniProt P04626 23-1255); test: cell-based or functional assay

Molecule: Cy5.5-58F63Y: peptide 58F63Y labeled with Cy5.5 (Cy5.5–NHS) (EWVADVNPNSGGFIYNQYFK; also: Cy5.5 label (via Cy5.5-NHS), position not given here)
- fluorescent intensity of Cy5.5-peptides in SKBR3 cells [1]: strongest fluorescence

Molecule: EWVADVNPNSGGFIYNQYFK [58F63Y]
- toxicity to HUVEC cells (HUVEC): no toxicity
- toxicity to SKBR3 cells (SKBR3): no toxicity
- OBOC library screening result (bead identified by MALDI-TOF-MS/MS) (HER2/biotin complex): positive
- in vivo tumor fluorescence intensity (binding affinity increase) relative to the control Cy5.5 [2]: 5.09 fold
- ex vivo tumor fluorescence signal compared to controls [2]: significantly high fluorescence signals

Molecule: EWVADVNPNSGGSIYNQRFK [compound 4665]
- toxicity to HUVEC cells (HUVEC): no toxicity
- toxicity to SKBR3 cells (SKBR3): no toxicity
- in vivo tumor fluorescence intensity (binding affinity increase) relative to the control Cy5.5 [2]: 3.52 fold
- ex vivo tumor fluorescence signal compared to controls [2]: significantly high fluorescence signals

B1: peptide 55V (4665 with Ser55 to Val) with N-terminal cysteine, for SPRi (peptide)
peptide: CEWVADVNPNVGGSIYNQRFK
notes: a cysteine residue linked to the amino terminal, for attachment to the bare gold chip; numbers count on: pertuzumab (first letter is 46); source: synthetic peptide (Fmoc solid phase synthesis, HPLC purified)
- Kd [3]: 64.6 µM

B2: peptide 63Y (4665 with Arg63 to Tyr) with N-terminal cysteine, for SPRi (peptide)
peptide: CEWVADVNPNSGGSIYNQYFK
notes: as for B1
- Kd [3]: 1.54 µM

Molecule: EWVADVNPNSGGFIYNQYFK (also: Cy5.5 label (via Cy5.5-NHS), position not given here) [Cy5.5-labeled peptide 58F63Y]
- in vivo fluorescence intensity of SKBR3 tumor xenografts in nude mice 30 min after injection of Cy5.5-58F63Y, relative to the control Cy5.5 [4]: 5.09 fold

B3: peptide 58F63Y with N-terminal cysteine, for SPRi (peptide)
peptide: CEWVADVNPNSGGFIYNQYFK
notes: as for B1
- Kd [3]: 0.536 µM

B4: peptide 55V63Y with N-terminal cysteine, for SPRi (peptide)
peptide: CEWVADVNPNVGGSIYNQYFK
notes: as for B1
- Kd [3]: 8.16 µM

B5: peptide 4665 (pertuzumab fragment Glu46 to Lys65) with N-terminal cysteine, for SPRi (peptide)
peptide: CEWVADVNPNSGGSIYNQRFK
notes: a cysteine residue linked to the amino terminal, for attachment to the bare gold chip; fragment of pertuzumab from Glu46 to Lys65 (beta hairpin); numbers count on: pertuzumab in PDB 1S78; source: synthetic peptide (Fmoc solid phase synthesis, HPLC purified)
- Kd [3]: 9.86 µM

B6: peptide 58F (4665 with Ser58 to Phe) with N-terminal cysteine, for SPRi (peptide)
peptide: CEWVADVNPNSGGFIYNQRFK
notes: as for B1
- Kd [3]: 1.32 µM
